# US11472844B2, “Peptidomimetics, method of synthesis and uses thereof” (priority 2017, dated 2022)
# Entries after “also recorded” stand apart in the source; their conditions may differ. Non-standard residues stand in square brackets, D forms with d. *: point of attachment. X1 = CC[N+]1=C(/C=C/C=C/C=C2N(CCCCCC(=O)NCCN3C(=O)CC(*)C3=O)c3ccc(S(=O)(=O)O)cc3C2(C)C)C(C)(C)c2cc(S(=O)(=O)[O-])ccc21
# Assays:
# trypsin = trypsin (Sus scrofa, UniProt P00761); settings: trypsin digestion, 37°C, pH8, followed up to 24 h
# Chain of trypsin (P00761 9-231): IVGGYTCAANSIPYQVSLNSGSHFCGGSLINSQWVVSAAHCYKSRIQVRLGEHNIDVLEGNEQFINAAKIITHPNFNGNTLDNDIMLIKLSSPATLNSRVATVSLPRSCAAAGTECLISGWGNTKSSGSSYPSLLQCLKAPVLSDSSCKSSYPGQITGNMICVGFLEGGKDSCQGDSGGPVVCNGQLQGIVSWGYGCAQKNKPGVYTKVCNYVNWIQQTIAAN
# Protocol: Trypsin proteolysis. MUB40 (SEQ ID NO: 3)-Cy5 and RI-MUB40 (SEQ ID NO: 2)-Cy5 were dissolved in 50 mM ammonium bicarbonate, pH 8. Prior to digestion and owing to the propensity of maleimide derivatives to undergo ring-opening in a basic environment (Fontaine et al., 2015), we incubated both peptides at 37° C. overnight. Ring-opening completion was checked before trypsin addition. […] Lyophilized trypsin (Thermo scientific) was reconstituted using 50 mM acetic acid, diluted with 50 mM ammonium bicarbonate and added to the peptide solution so as to obtain a final peptide concentration of 0.25 mg/mL and a protease to protein ratio of 1:20 (w/w). Samples were directly incubated on the injection sampler thermostated at 37° c. HPLC and LC-MS analyses were performed as previously described above, applying a 15% to 40% linear gradient of acetonitrile in 10 mM ammonium acetate over 20 minutes.
# Hydrolysis experiments were done in solution at 37° c., pH8 and monitored by HPLC by measuring the peak area of the remaining intact peptides.
# human colonic mucus = experiment: Fluorescent labelling of human colonic mucus layer; assay type: binding; settings: 1 μg/mL
# Protocol: Colon explant surgical collection. In summary, human colon segments (ascending, descending, and sigmoid colon) were obtained from fully informed patients undergoing surgery for colon carcinoma and were analyzed anonymously. Patient written consent was obtained, according to the French bioethics law. None of the patients had undergone radiotherapy or chemotherapy. According to the pathologist's examination rules for the longitudinally bisected colon, a healthy segment of tissue, which was distant from the tumor region and devoid of metastatic cells, was removed. Tissues were processed according to the French Government guidelines for research on human tissues and the French Bioethics Act with the authorization no RBM 2009-50.
# Fixation and staining procedures. For microscopy studies, purified or cultured cells and polymerized lactoferrin were resuspended onto 24-well plates containing 12 mm coverslips in RMPI 1640+10 mM Hepes (when cultured in the autologous plasma) and centrifuged at 300×g for 10 min. Culture media were removed and cells were fixed in 4% Paraformaldehyde (PFA) for two hours. Fixed cells were washed three times in PBS+0.1% saponin (Sigma-Aldrich), prior immunolabeling with primary antibodies in the same buffer for 1 hour (Triton 0.1% can alternatively be used for cell permeabilization). After three additional washes in PBS+0.1% saponin, secondary antibodies and fluorescent markers were incubated for one hour. […]
# Antibodies, fluorescent markers. For immunofluorescence assay, lactoferrin was detected with a mouse anti-lactoferrin primary monoclonal antibody (Hycult biotech, clone 265-1K1, 1:50 dilution) and an anti-mouse-FITC conjugated secondary antibody (1:1000). Nuclei were detected with DAPI (Life Technologies), Lyophilized MUB40 peptides (MUB40#1 (SEQ ID NO: 3)-Cy5, MUB40#2 (SEQ ID NO: 4)-Cy5, MUB40#3 (SEQ ID NO: 5)-Cy5, MUB40#4 (SEQ ID NO: 6)-Cy5, MUB40#1 (SEQ ID NO: 3)-Dylight, RI-MUB40 (SEQ ID NO: 2)-Cy5, and RI-MUB40 (SEQ ID NO: 2)-Biotin) were solubilized in a phosphate buffer pH8 at a 1 mg/mL concentration and used at a 1:1000 dilution. […]
# [1] = system: human neutrophil granules; experiment: Fluorescent labelling of fixed purified human neutrophils; assay type: cell-based; settings: 1 μg/mL
# Protocol: Fixation and staining procedures. For microscopy studies, purified or cultured cells and polymerized lactoferrin were resuspended onto 24-well plates containing 12 mm coverslips in RMPI 1640+10 mM Hepes (when cultured in the autologous plasma) and centrifuged at 300×g for 10 min. Culture media were removed and cells were fixed in 4% Paraformaldehyde (PFA) for two hours. Fixed cells were washed three times in PBS+0.1% saponin (Sigma-Aldrich), prior immunolabeling with primary antibodies in the same buffer for 1 hour (Triton 0.1% can alternatively be used for cell permeabilization). After three additional washes in PBS+0.1% saponin, secondary antibodies and fluorescent markers were incubated for one hour. Coverslips were washed three time in PBS+0.1% saponin, three times in PBS, and three times in deionized H2O and mounted with prolong gold^tm mounting media.
# Antibodies, fluorescent markers. For immunofluorescence assay, lactoferrin was detected with a mouse anti-lactoferrin primary monoclonal antibody (Hycult biotech, clone 265-1K1, 1:50 dilution) and an anti-mouse-FITC conjugated secondary antibody (1:1000). Nuclei were detected with DAPI (Life Technologies), Lyophilized MUB40 peptides (MUB40#1 (SEQ ID NO: 3)-Cy5, MUB40#2 (SEQ ID NO: 4)-Cy5, MUB40#3 (SEQ ID NO: 5)-Cy5, MUB40#4 (SEQ ID NO: 6)-Cy5, MUB40#1 (SEQ ID NO: 3)-Dylight, RI-MUB40 (SEQ ID NO: 2)-Cy5, and RI-MUB40 (SEQ ID NO: 2)-Biotin) were solubilized in a phosphate buffer pH8 at a 1 mg/mL concentration and used at a 1:1000 dilution. For PBMC staining CD19-APC (B lymphocytes), CD3-APC (T lymphocytes), and CD14-PercP (monocytes, macrophages) (BD Bioscience) were used at a 1:1000 dilution together with Dapi (1:1000) and MUB40-Cy5 (1 mg/mL). Actin was stained with Phalloidin-Rhodamine red X (RRX) (Jackson Immunoresearch Antibodies) used at a 1:1000 final dilution.
# Polymorphonuclear neutrophils purification. Human polymorphonuclear neutrophils were purified as described previously (Monceaux et al. 2016). Briefly, plasma was removed by centrifugation (450×g, 15 min); blood cells were resuspended in 0.9% NaCl solution supplemented with 0.72% Dextran. After red blood cells sedimentation, white blood cells were pelleted and further separated on a two layer Percoll (GE Healthcare) (51%−42%) by centrifugation (at 240×g, 20 min). PBMC (top layer) were isolated from polymorphonuclear neutrophils (bottom layer). Red blood cells were removed from the latter fraction using CD235a (glycophorin) microbeads (negative selection) (Miltenyi Biotec). PBMCs and polymorphonuclear neutrophils were resuspended in the autologous plasma. Guinea pig and mouse polymorphonuclear neutrophils were purified with the same procedure.
# Confocal microscopy. […]
# [2] = system: mucus produced by human cell lines (L174T); experiment: Binding to mucus produced by human cell lines; assay type: cell-based
# living human neutrophils = experiment: Live microscopy of neutrophils infected with Shigella flexneri; assay type: cell-based
# Protocol: Neutrophil infection. Human purified neutrophils were cultured in glass-bottom dishes (Mattek) for live fluorescent microscopy in a RMPI 1640 (Life Technologies) culture medium supplemented with 10% of heat inactivated Human Serum (Sigma-Aldrich). Neutrophils (5.10^5 cell/mL in 2 mL) were infected with exponentially-grown Shigella flexneri 5a pGFP at a Multiplicity Of Infection (MOI) 20 in RMPI 1640 (Life Technologies) culture medium supplemented with 10 mM Hepes (Life Technologies) at 37° C. Infected neutrophils were centrifuged at 2000 rpm for 10 min prior imaging.
# Live epifluorescence microscopy. Viable neutrophils infected with S. flexneri pGFP were imaged on a Definite focus live microscope (Zeiss) equipped with a temperature control chamber (37° C.) and a 63× oil immersion objective. Images were acquired every 60 s. Z-stack images were taken with […] step-size increments. Obtained Z-stack images were processed with Fiji software to generate a Movie and the corresponding extracted images are shown in FIG. 16a.
# [3] = system: inflammatory sites, localized in joints; experiment: Mouse arthritis model (K/B×N serum transfer), in vivo epifluorescence imaging
# Protocol: Mouse arthritis model. 6-7 weeks old female C57BL/6J mice were purchased from Charles River France, housed under specific pathogen-free (SPF) conditions and handled in accordance with French and European directives. Mouse protocols were approved by the Animal Ethics committee CETEA number 89 (Institut Pasteur, Paris, France) and registered under #2013-0103, and by the French Ministry of Research under agreement #00513.02. Arthritis was induced by i.v. injection of 120 μL K/B×N serum and arthritis scored as described previously (Bruhns et al. 2003). Mice injected with physiological saline were used as controls. On day 6 after serum transfer, mice were anesthetized, shaved, depilated and injected i.p. with luminol (10 mg/mouse) and i.v. with 5 μg/mouse MUB-40 Cy5. Epifluorescence, bioluminescence and CT images were acquired 10-90 min after injection using an IVIS SpectrumCT (Perkin Elmer).
# [4] = system: hind and front inflamed ankles; experiment: K/B×N mice, ankle fluorescence imaging after intravenous injection; assay type: in vivo, mouse; settings: 2 days post i.v. injection of 0.9 nmoles; p<0.01 vs MUB40-Cy5, p<0.001 vs Cy5 only
# From the text: (A) Ankles of K×B/N mice were imaged 2 Days after intravenous injection of 0.9 nmoles of RI-MUB40-Cy5 (SEQ ID NO: 2), MUB40-Cy5 (SEQ ID NO: 3) or Cy5 only. Fluorescence was quantified at the level of front or hind ankles (in ROI, as indicated).
# (B) Quantification of the fluorescent signal associated with RI-MUB40 (SEQ ID NO: 2)-Cy5, MUB40 (SEQ ID NO: 3)-Cy5 or Cy5 accumulation at hind and front ankles (top) or hind ankles only (bottom). Results are average from at least three animals. ** indicates p<0.01 and *** indicates p<0.001 (Student's T-test).
substance,measurement,setting,value
Ac-[dC](X1)[dF][dI][dV][dT][dY][dF][dQ][dD][dN][dT][dD][dD][dN][dD][dF][dK][dE]G[dA][dP][dF][dN][dD][dK][dF][dL][dE][dY]G[dD]G[dE][dF][dK][dK][dI]G[dE][dA][dT]-NH2 [Cy5-RI-MUB40],degradation by trypsin (in words),trypsin,no degradation
same,labelling of / binding to human colonic mucus,human colonic mucus,validated
same,labelling of human neutrophil granules,[1],validated
same,binding to mucus produced by human cell lines (L174T),[2],validated
same,detection of lactoferrin degranulation on living neutrophils,"living human neutrophils; Shigella flexneri MOI 20, 1 μg/mL, 37°C","transient, dot-shaped fluorescent signals were detected on the cells' surface"
same,crossing of plasma membrane of living cells,"living human neutrophils; live cells, listed as RI-MUB40-Cy5",did not cross the plasma membrane of living cells; also recorded: does not cross plasma membrane of live cells
same,relation of epifluorescent signal to luminol bioluminescent signal,"[3]; hind ankle joints, p≤0.0001",correlated
same,accumulation of fluorescent signal at inflammatory sites,"[3]; i.v. injection, arthritic mice but not naïve controls, day 6",a fluorescent signal accumulated at inflammatory sites
same,"epifluorescent signal, arthritic mice vs controls","[3]; p≤0.0001, T-test",significantly higher in arthritic mice compared to controls
same,fluorescent signal accumulation at hind and front inflamed ankles,[4],significantly higher compared to MUB40-Cy5
